Measured values taken from PMC2364081, “Antagonists of retinoic acid receptors (RARs) are potent growth inhibitors of prostate carcinoma cells” (British Journal of Cancer, 2001).
pIC50, pKd: −log10 of the molar value.

Assays:
[1] = system: FBS-grown LNCaP, DU145 and PC3 cells; assay: Plate colony formation assay, stated over the three FBS-grown lines; assay type: cell-based, human; settings: 100 nM
Excerpt: (§1) Prostate cancer is one of the most common cancers in European and American males and has a high mortality rate (Landis et al, 1998; Rosenthal, 1998). Early disease is managed conservatively in Europe although in selected patients surgery is curative. In advanced disease, androgen ablation can produce symptomatic improvement, but the tumour often re-emerges in an androgen- independent and incurable form. One proposed treatment for androgen-independent prostate carcinoma is differentiation ther- apy, in which agents such as all-trans-retinoic acid (ATRA), 9-cis- retinoic acid and 1, 25-dihydroxyvitamin D3 (D3 ) are used to induce growth arrest, differentiation and sometimes apoptosis of the tumour cells (Liang et al, 1999; de Vos et al, 1997; Skowronski et al, 1994; Hedlund et al, 1997). ATRA and synthetic analogues exert their biological effects by binding to two families of retinoid receptors, […]. These are ligand-dependent transcription factors of the steroid/thyroid hormone nuclear receptor superfamily (Chambon 1994; Boehm et al, 1995). Activated RARs bind to retinoic acid-responsive elements (RAREs) in the promoters of genes and thus regulate gene expression. They also antagonize the activity of the tran- scription factor AP1 and thereby down-regulate the expression of some AP1-activated genes (Nagpal et al, 1995). […]

DU145 ITS+ cells = assay: Plate colony formation assay, serum-free (ITS+)-grown DU145; assay type: cell-based, human; settings: 14 days
Excerpt: (§2) Prostate cancer is one of the most common cancers in European and American males and has a high mortality rate (Landis et al, 1998; Rosenthal, 1998). Early disease is managed conservatively in Europe although in selected patients surgery is curative. In advanced disease, androgen ablation can produce symptomatic improvement, but the tumour often re-emerges in an androgen- independent and incurable form. One proposed treatment for androgen-independent prostate carcinoma is differentiation ther- apy, in which agents such as all-trans-retinoic acid (ATRA), 9-cis- retinoic acid and 1, 25-dihydroxyvitamin D3 (D3 ) are used to induce growth arrest, differentiation and sometimes apoptosis of the tumour cells (Liang et al, 1999; de Vos et al, 1997; Skowronski et al, 1994; Hedlund et al, 1997). ATRA and synthetic analogues exert their biological effects by binding to two families of retinoid receptors, the RARs (RAR, RAR and RAR) and the RXRs (RXR, RXR and RXR). These are ligand-dependent transcription factors of the steroid/thyroid hormone nuclear receptor superfamily (Chambon 1994; Boehm et al, 1995). Activated RARs bind to retinoic acid-responsive elements (RAREs) in the promoters of genes and thus regulate gene expression. They also antagonize the activity of the tran- scription factor AP1 and thereby down-regulate the expression of some AP1-activated genes (Nagpal et al, 1995). One approach to unravelling the contributions of RAR sub-types to these actions has been the development of synthetic retinoids with selective activities at individual RARs and RXRs. For example, the diaryl- acetylenic retinoids allow separation of transactivation and AP1 antagonism functions at RAR (Nagpal et al, 1995). Recently, compounds that are selective for particular RAR sub-types have been synthesized: these include both agonists and antagonists (Chandraratna, 1995; Teng et al, 1999; Johnson et al, 1999). The functional selectivity of these compounds may open the way to achieving differentiation or apoptosis of tumour cells with minimal systemic side effects (Chandraratna, 1995). […]

RARβ = target: T1, RARβ (Homo sapiens, UniProt P10826); assay: Binding to baculovirus-expressed RARβ; design: made in house; settings: baculovirus-expressed receptor
T1 sequence (P10826 1-455): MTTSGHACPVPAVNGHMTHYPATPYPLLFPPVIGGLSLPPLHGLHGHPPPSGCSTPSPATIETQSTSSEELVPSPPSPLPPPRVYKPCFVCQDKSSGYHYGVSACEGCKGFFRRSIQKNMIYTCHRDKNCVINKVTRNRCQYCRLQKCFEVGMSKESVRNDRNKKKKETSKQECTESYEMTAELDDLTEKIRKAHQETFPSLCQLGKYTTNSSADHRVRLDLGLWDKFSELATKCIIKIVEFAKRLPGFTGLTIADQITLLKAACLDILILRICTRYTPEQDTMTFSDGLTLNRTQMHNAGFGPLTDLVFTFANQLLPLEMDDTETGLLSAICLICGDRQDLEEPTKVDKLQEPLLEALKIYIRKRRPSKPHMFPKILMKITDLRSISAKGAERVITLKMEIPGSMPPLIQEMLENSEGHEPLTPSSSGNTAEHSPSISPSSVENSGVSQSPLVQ
Excerpt: (§3) Prostate cancer is one of the most common cancers in European and American males and has a high mortality rate (Landis et al, 1998; Rosenthal, 1998). Early disease is managed conservatively in Europe although in selected patients surgery is curative. In advanced disease, androgen ablation can produce symptomatic improvement, but the tumour often re-emerges in an androgen- independent and incurable form. One proposed treatment for androgen-independent prostate carcinoma is differentiation ther- apy, in which agents such as all-trans-retinoic acid (ATRA), 9-cis- retinoic acid and 1, 25-dihydroxyvitamin D3 (D3 ) are used to induce growth arrest, differentiation and sometimes apoptosis of the tumour cells (Liang et al, 1999; de Vos et al, 1997; Skowronski et al, 1994; Hedlund et al, 1997). ATRA and synthetic analogues exert their biological effects by binding to two families of retinoid receptors, […]. These are ligand-dependent transcription factors of the steroid/thyroid hormone nuclear receptor superfamily (Chambon 1994; Boehm et al, 1995). Activated RARs bind to retinoic acid-responsive elements (RAREs) in the promoters of genes and thus regulate gene expression. They also antagonize the activity of the tran- scription factor AP1 and thereby down-regulate the expression of some AP1-activated genes (Nagpal et al, 1995). One approach to unravelling the contributions of RAR sub-types to these actions has been the development of synthetic retinoids with selective activities at individual RARs and RXRs. For example, the diaryl- acetylenic retinoids allow separation of transactivation and AP1 antagonism functions at RAR (Nagpal et al, 1995). Recently, compounds that are selective for particular RAR sub-types have been synthesized: these include both agonists and antagonists (Chandraratna, 1995; Teng et al, 1999; Johnson et al, 1999). The functional selectivity of these compounds may open the way to achieving differentiation or apoptosis of tumour cells with minimal systemic side effects (Chandraratna, 1995). Cell lines that are commonly used in the evaluation of investiga- tional agents for prostate cancer include LNCaP, DU-145 and PC- 3. […] These lines are relatively insensitive to growth inhibition and induction of apoptosis by ATRA and by synthetic agonists. […] Fenretinide (4HPR) induces apoptosis of LNCaP and of PC-3 cells at 1-5 M and 25 µM, respectively (Pienta et al, 1993; Heish and Wu, 1997). Pfahl and colleagues examined the growth inhibitory effects of a panel of receptor-selective retinoids against DU145 and PC-3 cells and achieved complete growth inhibition and induction of apoptosis between 1 M and 10 M (Lu et al, 1999). […] Antagonists of retinoic acid receptors (RARs) are potent growth inhibitors of prostate carcinoma cells LA Hammond1 , CH Van Krinks2 , J Durham2 , SE Tomkins2 , RD Burnett3 , EL Jones1 , RAS Chandraratna3 and G Brown2 Divisions of 1 Cancer Studies and of 2 Immunity and Infection, University of Birmingham Medical School, Edgbaston, Birmingham B15 2TT, UK and 3 Retinoid Research, Allergan Inc., Irvine, California, USA Summary Novel synthetic antagonists of retinoic acid receptors (RARs) have been developed. To avoid interference by serum retinoids when testing these compounds, we established serum-free grown sub-lines (>3 years) of the prostate carcinoma lines LNCaP, PC3 and DU145. […] A component(s) of serum and of LNCaP-conditioned medium diminishes the activity of antagonists: this factor is not the most likely candidates IGF-1 and EGF. In vitro studies of RAR antagonists together with data from RAR-null mice lead to the hypothesis that RAR-regulated gene transcription is necessary for the survival and maintenance of prostate epithelium. […]

PC3 ITS+ cells = assay: Plate colony formation assay, serum-free (ITS+)-grown PC3; assay type: cell-based, human; settings: 14 days
Excerpt: as §2

LNCaP ITS+ cells = assay: Plate colony formation (clonal proliferation) assay, serum-free (ITS+)-grown LNCaP; assay type: cell-based, human
Excerpt: as §3

[2] = system: LNCaP, PC3 and DU145 cells; assay: Plate colony formation assay, stated over the three serum-free grown lines; assay type: cell-based, human
Excerpt: as §3

RARs = assay: Binding to RARs (stated over all three subtypes); settings: range over RARα, RARβ and RARγ
Excerpt: as §1

HL60 cells = assay: Clonal growth of single serum-free grown HL60 cells in microtitre wells; assay type: cell-based, human
Excerpt: as §3

[3] = system: primary prostate carcinoma cells; assay: Growth of primary prostate carcinoma cells (flask cultures, passage 2); assay type: cell-based, human; settings: 10 and 100 nM, two patients, days 3 and 6
Excerpt: as §1

Compound: CCc1ccc(C2=CC(C)(C)Sc3ccc(C#Cc4ccc(C(=O)O)cc4)cc32)cc1 [AGN194310]
- inhibition of colony formation [1]: 11-23%
- pIC50 (DU145 ITS+ cells): 7.47
- pKd (RARβ): 8.70
- pIC50 (PC3 ITS+ cells): 7.74
- growth inhibitory effect in combination with TTNPB (LNCaP ITS+ cells; 50 nM AGN194310 together with 100 nM TTNPB): almost complete reversal
- colony formation (% of control values) (LNCaP ITS+ cells; 50 nM alone (Figure 3)): 41%
- colony formation (% of control values) (LNCaP ITS+ cells; 100 nM AGN194310 together with 100 nM TTNPB): 40%
- colony formation (% of control values) (LNCaP ITS+ cells; 100 nM alone (Figure 3)): 14%
- colony formation (% of control) (LNCaP ITS+ cells; 100 nM, ITS+ cells plated in ITS+ medium (Figure 5A)): < 1%
- growth inhibitory activity in LNCaP-conditioned medium (LNCaP ITS+ cells; 100 nM, LNCaP ITS+ cells plated in LNCaP-conditioned medium): abrogated
- inhibition of colony formation (LNCaP ITS+ cells; 100 nM, with EGF at 1, 10 and 20 ng/ml): > 95%
- pIC50 (LNCaP ITS+ cells; LNCaP, serum-free (ITS+), 14 days): 7.80
- concentration required to attain maximum growth inhibition (LNCaP ITS+ cells; colony assay): 100 nM
- colony formation (% of control) ([2]; 100 nM, ITS+-grown cells, all three cell lines): 3-7%
- fold more potent than ATRA ([2]; against cell lines, serum-free): 12–22 fold
- pIC50 ([2]; stated over all three serum-free grown lines, read-out: concentration inhibiting colony formation by 50% (IC50)): 7.47 to 7.80
- pKd (RARs): 8.30 to 8.70
- effect on clonal growth of HL60 cells (HL60 cells): did not adversely affect
- viability of the single cells (HL60 cells; 0.1 µM): > 95%
- number of viable cells at day 4 (HL60 cells; 100 nM, control 18): 17
- cloning efficiency (HL60 cells; 100 nM, same as untreated): 90-93%
- cell growth of primary lines [3]: substan- tial growth inhibition
